# In patent US20240082263A1, “PHARMACEUTICAL COMPOSITION FOR COMBINATION THERAPY COMPRISING MELATONIN AND PROSTAGLANDIN E2 FOR TREATING INTESTINAL EPITHELIAL INJURY AS AN ACTIVE INGREDIENT” (PUSAN NATIONAL UNIVERSITY INDUSTRY-UNIVERSITY COOPERATION …, priority 2022, published 2024):
# How the values were obtained:
# Type in all cases: cell-based
# [1] = tested on: mouse small intestine epithelial organoids; experiment: Flow cytometry of Ly6a-expressing cells in organoids; settings: FIG. 2; for revival stem cell induction (ratio of Ly6a-expressing cells): flow cytometry, 2-iodomelatonin 200 μM, 8M-PDOT 200 μM, Butaprost 10 μM, Cay10598 10 μM, 5 days; for effect of receptor inhibitor on induction of revival stem cells: co-treated to PGE2 alone group and 8M-PDOT and PGE2 combined group, L-161,982 10 μM, PF-04418948 20 μM
# Procedure: (§1) Mouse-derived small intestinal epithelial organoids were obtained as follows. First, small intestine tissue (duodenum about 10-15 cm) was isolated from 8-week-old C57BL/6N mice, and the intestinal lumen was washed with PBS using a 1 ml pipette tip, and the tissue was opened with the lumen facing up, and the remaining mucus, food, and intestinal villi were scraped off and removed. Thereafter, about 25 ml of PBS was filled in a 50 ml tube, and the intestinal tissue was cut to a length of about 2 to 4 mm and washed by shaking vigorously (repeated about 3 to 4 times). The washed intestinal tissue was suspended in 20 ml of Gentle cell dissociation reagent (100-0485, stemcell technologies) and reacted for 15 to 20 minutes while shaking at 20 rpm at room temperature. After the reaction was completed, crypts were separated from the intestinal tissue by vortexing at maximum speed for 5 seconds, and the tissue was removed and centrifuged at 290 g for 5 minutes. The collected cell pellet was resuspended in 10 ml of PBS, centrifuged at 290 g for 5 minutes, and then the cell pellet was suspended in DMEM/F12 medium to confirm the number of crypts. About 500 crypts per 24 well are mixed with 20 μl of cell culture medium (IntestiCult™ Organoid Growth Medium for Mouse, 05005, stemcell technologies) and 20 μl of Matrigel (354230, corning), planted in a dome shape in the center of the well, and placed in a cell culture incubator. After standing for 10 minutes and waiting for the gel to harden, 750 μl of IntestiCult was added and cultured.
# In addition, changes in the percentage of cells expressing Ly6a, a specific marker for revival stem cells, were evaluated by flow cytometry. For flow cytometry, mouse small intestine epithelial organoids were treated with melatonin (500 μM) and PGE2 (100 nM) alone or in combination for 5 days, and the organoids were reacted with TrypLE™ Express Enzyme (Thermo Fisher) for 5 minutes at 37° C. to produce single cells. Thereafter, the Ly6a antibody (12-5981-82, Thermo Fisher) fluorescently labeled with PE was diluted 1:250 in PBS containing 3% BSA, and 200 μl of the diluted solution was mixed with the single celled sample and allowed to stand in a dark room at 4° C. for 1 hour. Then, each sample was washed with PBS (300 g, centrifuged for 5 minutes) and immediately analyzed with an Accuri C6 flow cytometer.
# In order to further specify the mechanism of inducing revival stem cells, mouse-derived intestinal epithelial organoids were treated with a combination of various melatonin analogues and a specific agonist of the PGE2 receptor. […]
# [2] = tested on: Human-derived intestinal epithelial organoids; experiment: Quantitative PCR of Clusterin (CLU) expression in organoids; settings: same concentrations as in the mouse experiment, FIG. 3
# Procedure: Human-derived intestinal epithelial organoids were treated with melatonin and its analogues and PGE2 to confirm whether revival stem cells were induced as observed in mouse intestinal organoids. In order to obtain intestinal epithelial organoids, donated human colon tissue was cut into a size of about 1 cm 2, placed in PBS containing gentamicin (10 μg/ml, Gibco), and allowed to stand at 4° C. for 30 minutes. Then, the tissue was taken out and the mucous layer was scraped off using forceps, and the process of shaking and washing in PBS was repeated 5 to 6 times, as in the case of mice. After washing, the tissue was put into 25 ml of Gentle cell dissociation reagent and reacted by shaking at 200 rpm for 20 minutes at 37° C. After vortexing at the maximum speed, the crypts were separated and cultured by washing in the same process as in mice. At this time, IntestiCult™ Organoid Growth Medium for Human (06010, stemcell technologies) was used as the culture medium. The obtained human intestinal epithelial organoids were treated alone or in combination with melatonin, 8M-PDOT, and PGE2 at the same concentrations as in the mouse experiment, and then the expression level of Clusterin (CLU) was compared through quantitative PCR. […]
# [3] = tested on: Mouse-derived small intestinal epithelial organoids; experiment: Microarray gene expression of revival stem cell markers in organoids; settings: melatonin 500 μm, PGE2 100 nM, alone or in combination, 5 days
# Procedure: as §1
# The obtained mouse-derived small intestinal epithelial organoids were treated with melatonin (500 μm, 14427, Cayman) and PGE2 (prostaglandin E2, 100 nM; 14010, Cayman) alone or in combination for 5 days, and microarray was performed to track gene expression changes. RNA was extracted from the organoids using the RNeasy Kit (Qiagen), cDNA was synthesized using the GeneChip WT (Whole Transcript) Amplification kit, and analyzed using the Clariom™ S Affymetrix GeneChip Array (Affymetrix).
smiles,measurement,setting,value
CCCC1([C@H](O)C/C=C/[C@H]2[C@H](O)CC(=O)[C@@H]2CCCCCCC(=O)OC)CCC1 [Butaprost],revival stem cell induction (ratio of Ly6a-expressing cells),[1],did not show a specific induction effect
O=C1CC[C@H](/C=C/[C@@H](O)Cc2ccccc2)N1CCCCCCc1nn[nH]n1 [Cay10598],revival stem cell induction (ratio of Ly6a-expressing cells),[1],induction effect similar to or higher than that of PGE2
"CCCCc1nn(-c2ccccc2C(F)(F)F)c(=O)n1Cc1ccc(-c2ccccc2S(=O)(=O)NC(=O)c2sccc2C)cc1 [L-161,982]",effect of receptor inhibitor on induction of revival stem cells,[1],greatly suppressed
COc1ccc2cc(OCC3(C(=O)O)CN(C(=O)c4ccc(F)cc4)C3)ccc2c1 [PF-04418948],effect of receptor inhibitor on induction of revival stem cells,[1],no effect
"CCCCC[C@H](O)/C=C/[C@H]1[C@H](O)CC(=O)[C@@H]1C/C=C\CCCC(=O)O [PGE2, prostaglandin E2]",CLU expression,[2],increased
same,Cldn4 expression FC (fold change) vs control,[3],1.9264
same,Clu expression FC (fold change) vs control,[3],1.7590
same,Ly6a expression FC (fold change) vs control,[3],9.7349
COc1ccc2[nH]cc(CCNC(C)=O)c2c1 [melatonin],Cldn4 expression FC (fold change) vs control,[3],1.0013
same,Clu expression FC (fold change) vs control,[3],1.2252
same,Ly6a expression FC (fold change) vs control,[3],1.1646
